Experimental data as given in patent US8541476B2, “Compounds for treatment of malignant tumors” (The Trustees of the University of Pennsylvania, priority 2007, dated 2013).

Assays:
U251 glioma cells = assay: Clonogenic survival assay, U251 cells; type: cell-based, human
Method: Clonogenic survival assays were performed as described by Koumenis, et al., 2002, (Mol. Cell Biol. 22:7405-16), which reference is incorporated herein in its entirety. U251, HT-29, or A549 cells were plated at different densities in triplicate, treated with NS-123 or DMSO (alone) and irradiated 4, 8, or 12 hours later with a range of doses using ^137Cs γ-rays at a dose rate of ˜4 Gy/minute (min). One hour after irradiation, the medium was replaced with fresh medium without NS-123 or DMSO. The cells were fixed 7-14 days after IR and stained with crystal violet. Colonies greater than 50 cells were then counted and normalized against the non-irradiated controls for each treatment. […] NHA cells were plated in 24-well plates in quadruplicate at equal density, treated with equal volumes of NS-123 or DMSO (alone) and irradiated as described above. One hour after irradiation, the medium was replaced with fresh ABM. Five days later, the MTS assay was used to evaluate cell survival as above.
The effects of μM doses of NS-123 on clonogenic survival of U251 cells were first determined without ionizing radiation (IR). […] Treatment with a 5 μM dose for 12 hours caused a modest (30%), but statistically significant decrease in survival.
Next, the dose-dependent radiosensitizing effects of NS-123 (2.5 μM and 5.0 μM concentration) in U251 cells was determined (FIG. 4A). […] Therefore, NS-123 can act as a true radiosensitizer at low μM concentrations. Corresponding Dose Enhancement Ratios (DER) at 0.1 survival were: 1.3 (2.5 μM NS-123) and 2.0 (5.0 μM NS-123). The time-dependent radiosensitizing effects of 5.0 μM NS-123 in U251 cells was then investigated. […] Corresponding DER at 0.1 survival were: 1.2 (4 hour preincubation with NS-123), 1.4 (8 hour) and 1.9 (12 hour).

[1] = NS-123 toxicity evaluation in nu/nu mice; type: in vivo
Method: Female nu/nu (nude) mice (6-8 weeks old; Charles River, Wilmington, Mass.) were maintained at the WFUSM animal facility under conditions approved by the Animal Care and Use Committee. NS-123 in DMSO was mixed with 30% propylene glycol (DMSO concentration<1%) and administered via an i.p. injection at a dose of 50 mg/kg to three mice on three consecutive days. The mice were monitored over 30 days for signs of drug-related toxicity, lethality, and weight loss. Mice were euthanized by CO2 asphyxiation and necropsy was performed by a veterinary pathologist. The heart, lung, liver, spleen, kidney, brain, salivary gland, gastrointestinal tract, ovary, uterus, adrenal gland, and thyroid gland were preserved in 10% neutral buffered formalin for at least 48 hours. The tissues were embedded in paraffin, processed routinely for histology, cut at 4-6 microns, stained with hematoxylin and eosin and examined by light microscopy.
To test this hypothesis, 50 mg/kg (i.p.) was administered to nude mice for 3 consecutive days. Clinical signs of drug toxicity and lethality were not observed over the following 30 days.

U251 tumors xenografts = assay: U251 xenograft mouse model, tumor growth delay; type: in vivo
Method: U251 cells (5×10^6) were suspended in 0.1 mL of PBS and then injected into the flanks of nu/nu female nude mice. After tumors formed (45±10 mm^3), mice were randomly assigned into one of four groups: DMSO+Sham IR, DMSO+5 Gy IR, NS-123+Sham IR, and NS-123+5 Gy IR. NS-123 was administered as described above. Groups not receiving NS-123 were treated with the same volume of DMSO alone dissolved in 30% propylene glycol. Mouse flanks were irradiated 4 hours following the second injection with 5 Gy (Precision X-Ray, Inc, North Branford, Conn.) given as one fraction or Sham IR. Tumor volumes were measured every other day based on the formula: Volume=length^2×width where length was always the longest dimension.
Data are presented as average relative tumor volume (RTV), where: RTV[Dayx]=Volume[Dayx]/Volume[Day0]
The measurement of tumor regrowth was calculated by the time needed to grow to 10× the treatment volume. As per Seo et al, 2005, (Clin. Cancer Res. 11:7499-507), the in vivo radiosensitizer enhancement ratio was defined as the ratio: TNS-123+IR/TDMSO+IR where T is tumor regrowth delay (days)
To investigate in a more sophisticated model the radiosensitization observed by NS-123 in ZF, a growth delay assay of U251 tumors xenografts in nu/nu nude mice was performed. Mice were treated for 3 consecutive days with either NS-123 or DMSO (i.p.) and received either 5 Gy IR or Sham IR 4 hours after the second injection (see Table at the bottom FIG. 7A). […] Furthermore, they provide additional support for the use of the novel ZF xenograft model as a faster, more economical screening tool for potential in vivo radiosensitizing activity of lead compounds.

CCC(=O)c1ccc(Br)c([N+](=O)[O-])c1 [NS-123, 4′-bromo-3′-nitropropiophenone]
clonogenic survival without IR (U251 glioma cells; U251, 2.5 μM for 12 hours, no IR): did not cause any significant decrease in survival | Dose Enhancement Ratio (DER) at 0.1 survival (U251 glioma cells; U251, 2.5 μM, 12 hours before IR): 1.3 | radiosensitization (U251 glioma cells; U251, 2.5 μM, IR dose of 2 Gy): Radiosensitization was evident | decrease in clonogenic survival without IR (U251 glioma cells; U251, 5 μM for 12 hours, no IR): 30% | Dose Enhancement Ratio (DER) at 0.1 survival (U251 glioma cells; U251, 5.0 μM, 4 hour preincubation): 1.2 | Dose Enhancement Ratio (DER) at 0.1 survival (U251 glioma cells; U251, 5.0 μM, 8 hour preincubation): 1.4 | Dose Enhancement Ratio (DER) at 0.1 survival (U251 glioma cells; U251, 5.0 μM, 12 hour preincubation (time-response, FIG. 4B)): 1.9 | Dose Enhancement Ratio (DER) at 0.1 survival (U251 glioma cells; U251, 5.0 μM, 12 hours before IR (dose-response, FIG. 4A)): 2.0 | loss of viability without IR, time-response (U251 glioma cells; U251, 5 μM, various times, no IR): did not induce any significant loss of viability unless it was administered for 12 hours | radiosensitization, high-density plated cells (U251 glioma cells; U251 plated at high density, 30 μM 4 hour versus 5 μM 12 hour on low-density cells (data not shown)): comparable radiosensitization | gross and histopathological examination ([1]; female, nu/nu (nude), mouse, in vivo, ip, 50 mg/kg): did not reveal any evidence suggestive of NS-123 associated toxicity | clinical signs of drug toxicity and lethality ([1]; nude mice, 50 mg/kg i.p. 3 consecutive days, 30 days observation): not observed | mean time to reach Relative Tumor Volume (RTV)=10 (U251 tumors xenografts; NS-123 50 mg/kg i.p. x3 days + 5 Gy IR): 20 days | mean time to reach Relative Tumor Volume (RTV)=10 (U251 tumors xenografts; NS-123 50 mg/kg i.p. x3 days + Sham IR): 12 days | in vivo radiosensitizer enhancement ratio (U251 tumors xenografts; ratio of tumor regrowth delay NS-123+IR / DMSO+IR): 2.0
